The text below walks through data of the Kinase Knowledgebase extract (Sharma et al. 2016).

This experiment has as its target EGFR (human) (UniProt P00533).

EGFR (human), sequence (P00533 whole entry, looked up): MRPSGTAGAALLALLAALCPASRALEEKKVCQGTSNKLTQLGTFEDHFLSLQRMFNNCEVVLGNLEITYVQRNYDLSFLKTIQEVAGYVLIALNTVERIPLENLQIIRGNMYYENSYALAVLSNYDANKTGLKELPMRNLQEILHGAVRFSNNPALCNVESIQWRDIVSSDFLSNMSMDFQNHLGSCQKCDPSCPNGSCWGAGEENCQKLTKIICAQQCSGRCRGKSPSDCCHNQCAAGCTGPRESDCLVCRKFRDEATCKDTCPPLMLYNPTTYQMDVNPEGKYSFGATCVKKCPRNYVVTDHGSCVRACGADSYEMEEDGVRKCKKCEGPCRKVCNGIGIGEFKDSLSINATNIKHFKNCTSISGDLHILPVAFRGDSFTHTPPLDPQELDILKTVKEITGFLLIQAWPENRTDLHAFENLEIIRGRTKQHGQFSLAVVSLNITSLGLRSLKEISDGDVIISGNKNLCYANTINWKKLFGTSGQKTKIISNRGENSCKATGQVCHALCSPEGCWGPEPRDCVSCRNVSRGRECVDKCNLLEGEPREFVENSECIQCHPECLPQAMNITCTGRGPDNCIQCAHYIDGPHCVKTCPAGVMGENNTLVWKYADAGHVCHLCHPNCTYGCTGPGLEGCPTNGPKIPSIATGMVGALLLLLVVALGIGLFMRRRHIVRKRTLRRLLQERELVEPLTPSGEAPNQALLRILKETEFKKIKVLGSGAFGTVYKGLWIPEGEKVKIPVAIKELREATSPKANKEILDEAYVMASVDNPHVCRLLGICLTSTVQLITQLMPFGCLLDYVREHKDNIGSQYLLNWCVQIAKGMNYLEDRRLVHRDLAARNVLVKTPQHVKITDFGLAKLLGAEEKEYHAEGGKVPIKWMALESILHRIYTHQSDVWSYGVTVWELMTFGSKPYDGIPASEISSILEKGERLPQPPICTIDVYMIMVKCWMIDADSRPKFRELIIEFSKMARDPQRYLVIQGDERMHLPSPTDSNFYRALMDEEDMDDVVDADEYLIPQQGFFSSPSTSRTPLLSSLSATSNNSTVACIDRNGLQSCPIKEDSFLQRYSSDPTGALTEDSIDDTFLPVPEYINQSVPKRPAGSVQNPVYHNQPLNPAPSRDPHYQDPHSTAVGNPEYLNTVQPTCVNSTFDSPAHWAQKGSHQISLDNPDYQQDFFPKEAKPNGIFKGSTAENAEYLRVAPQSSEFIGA

On to `NC(=O)C1CCN(Cc2ccc(-c3cc4nccc(Nc5ccc6[nH]ccc6c5)c4s3)cc2)CC1`, for which the IC50 is 7 nM.

`CC(=O)NCCNCc1ccc(-c2cc3ncnc(Nc4ccc5[nH]ccc5c4)c3s2)cc1` displayed an IC50 of 2 nM.

For `c1cn(CCCc2ccc(-c3cc4ncnc(Nc5ccc6[nH]ccc6c5)c4s3)cc2)cn1`, the IC50 was found to be 1 nM.

`CC(=O)NCCNCc1ccc(-c2cc3nccc(Nc4ccc5[nH]ccc5c4)c3s2)cc1`: the IC50 is 5 nM.

As for `c1ccc(-c2cc3nccc(Nc4ccc5[nH]ccc5c4)c3s2)cc1`, the IC50 was 68 nM.

For `c1csc(-c2cc3nccc(Nc4ccc5[nH]ccc5c4)c3s2)c1`, the IC50 is 39 nM.

For `c1cn(CCCc2ccc(-c3cc4nccc(Nc5ccc6[nH]ccc6c5)c4s3)cc2)cn1`, the IC50 came to 5 nM.

With `CC(C)(CO)NCc1ccc(-c2cc3nccc(Nc4ccc5[nH]ccc5c4)c3s2)cc1`, the IC50 was 8 nM.

For `NC(=O)C1CCN(Cc2ccc(-c3cc4ncnc(Nc5ccc6[nH]ccc6c5)c4s3)cc2)CC1`, the IC50 amounted to 1 nM.

Molecule `c1nc(Nc2ccc3[nH]ccc3c2)c2sc(-c3ccc(NCCN4CCCC4)cc3)cc2n1` gave an IC50 of 1 nM.
